From ChEMBL document CHEMBL4507276 (2021)

Assays:
[1] = molecular target: Catechol O-methyltransferase (Sus scrofa) (UniProt Q99028); assay: CATOMETHTRAN Cerep selectivity data (BI); conditions: Compound concentration 20.0 uM
[2] = molecular target: Serine/threonine-protein kinase PLK1 (Homo sapiens) (UniProt P53350); assay: PLK1 Invitrogen selectivity data (BI); conditions: Compound concentration 3.0 uM
[3] = molecular target: Phosphatidylinositol 4-phosphate 3-kinase C2 domain-containing subunit alpha (Homo sapiens) (UniProt O00443); assay: PIK3C2A Invitrogen selectivity data (BI); conditions: Compound concentration 3.0 uM
[4] = molecular target: BDNF/NT-3 growth factors receptor (Homo sapiens) (UniProt Q16620); assay: NTRK2 Invitrogen selectivity data (BI); conditions: Compound concentration 3.0 uM
[5] = molecular target: Homeodomain-interacting protein kinase 3 (Homo sapiens) (UniProt Q9H422); assay: HIPK3 Invitrogen selectivity data (BI); conditions: Compound concentration 3.0 uM
[6] = molecular target: Ribosomal protein S6 kinase alpha-6 (Homo sapiens) (UniProt Q9UK32); assay: RPS6KA6 Invitrogen selectivity data (BI); conditions: Compound concentration 3.0 uM
[7] = molecular target: Dual specificity protein kinase CLK1 (Homo sapiens) (UniProt P49759); assay: CLK1 Invitrogen selectivity data (BI); conditions: Compound concentration 3.0 uM
[8] = molecular target: Mu-type opioid receptor (Homo sapiens) (UniProt P35372); assay: MU/HU Eurofins-Panlabs selectivity data (BI); conditions: Compound concentration 10.0 uM
[9] = molecular target: T1, Megakaryocyte-associated tyrosine-protein kinase (Homo sapiens) (UniProt P42679); assay: MATK Invitrogen selectivity data (BI); conditions: Compound concentration 3.0 uM
T1 sequence (whole entry): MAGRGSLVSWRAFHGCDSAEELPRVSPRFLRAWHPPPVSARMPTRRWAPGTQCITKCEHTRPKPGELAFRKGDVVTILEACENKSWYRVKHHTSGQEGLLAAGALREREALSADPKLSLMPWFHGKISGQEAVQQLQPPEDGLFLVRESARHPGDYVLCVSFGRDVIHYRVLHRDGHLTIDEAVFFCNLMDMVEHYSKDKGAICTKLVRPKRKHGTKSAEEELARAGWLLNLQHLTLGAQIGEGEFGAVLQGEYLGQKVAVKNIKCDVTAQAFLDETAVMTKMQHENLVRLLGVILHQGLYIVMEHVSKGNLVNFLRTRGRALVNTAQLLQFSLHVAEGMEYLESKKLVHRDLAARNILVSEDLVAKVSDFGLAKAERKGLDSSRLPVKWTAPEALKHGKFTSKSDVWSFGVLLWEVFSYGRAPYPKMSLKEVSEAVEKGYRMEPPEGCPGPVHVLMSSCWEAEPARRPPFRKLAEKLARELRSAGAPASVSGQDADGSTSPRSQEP

[10] = molecular target: Melanocortin receptor 3 (Homo sapiens) (UniProt P41968); assay: MC3H_AGON Cerep selectivity data (BI); conditions: filed as agonist, Compound concentration 20.0 uM
[11] = molecular target: Epidermal growth factor receptor (Homo sapiens) (UniProt P00533); assay: EGFR Invitrogen selectivity data (BI); conditions: Compound concentration 3.0 uM
[12] = molecular target: Melanocyte-stimulating hormone receptor (Mus musculus) (UniProt Q01727); assay: MC1_AGON Cerep selectivity data (BI); conditions: filed as agonist, Compound concentration 20.0 uM
[13] = molecular target: Cyclin-dependent kinase 5/CDK5 activator 1 (Homo sapiens) (UniProt Q00535+Q15078); assay: CDK5/P25 Invitrogen selectivity data (BI); format: protein-complex assay; conditions: Compound concentration 3.0 uM
[14] = molecular target: Mu-type opioid receptor (Homo sapiens) (UniProt P35372); assay: MU/H Cerep selectivity data (BI); conditions: Compound concentration 20.0 uM
[15] = molecular target: T2, Serine/threonine-protein kinase D2 (Homo sapiens) (UniProt Q9BZL6); assay: PRKD2 Invitrogen selectivity data (BI); conditions: Compound concentration 3.0 uM
T2 sequence (whole entry): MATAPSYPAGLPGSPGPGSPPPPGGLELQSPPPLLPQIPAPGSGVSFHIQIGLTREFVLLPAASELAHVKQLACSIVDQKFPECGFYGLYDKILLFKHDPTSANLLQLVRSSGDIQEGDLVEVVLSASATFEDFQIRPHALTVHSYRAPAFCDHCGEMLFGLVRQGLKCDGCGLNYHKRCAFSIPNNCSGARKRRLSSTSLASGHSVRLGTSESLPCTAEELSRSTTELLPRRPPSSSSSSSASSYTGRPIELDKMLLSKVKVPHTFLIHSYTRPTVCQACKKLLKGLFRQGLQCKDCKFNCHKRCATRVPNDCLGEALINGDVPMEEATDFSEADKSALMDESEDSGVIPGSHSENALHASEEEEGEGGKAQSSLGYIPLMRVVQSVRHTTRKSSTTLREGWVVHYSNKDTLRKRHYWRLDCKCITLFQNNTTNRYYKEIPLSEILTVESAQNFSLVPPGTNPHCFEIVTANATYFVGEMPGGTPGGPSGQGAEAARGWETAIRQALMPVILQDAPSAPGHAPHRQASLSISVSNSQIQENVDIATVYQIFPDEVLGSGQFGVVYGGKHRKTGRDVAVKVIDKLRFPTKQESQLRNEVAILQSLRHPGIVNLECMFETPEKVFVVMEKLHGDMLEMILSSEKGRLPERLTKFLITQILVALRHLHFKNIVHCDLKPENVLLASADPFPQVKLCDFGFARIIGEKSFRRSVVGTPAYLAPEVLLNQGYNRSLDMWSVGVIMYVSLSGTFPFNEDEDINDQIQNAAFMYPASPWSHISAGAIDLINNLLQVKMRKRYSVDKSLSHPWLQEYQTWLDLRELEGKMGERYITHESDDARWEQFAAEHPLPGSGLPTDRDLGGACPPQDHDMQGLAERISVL

[16] = molecular target: T3, Inhibitor of nuclear factor kappa-B kinase subunit epsilon (Homo sapiens) (UniProt Q14164); assay: IKBKE Invitrogen selectivity data (BI); conditions: Compound concentration 3.0 uM
T3 sequence (whole entry): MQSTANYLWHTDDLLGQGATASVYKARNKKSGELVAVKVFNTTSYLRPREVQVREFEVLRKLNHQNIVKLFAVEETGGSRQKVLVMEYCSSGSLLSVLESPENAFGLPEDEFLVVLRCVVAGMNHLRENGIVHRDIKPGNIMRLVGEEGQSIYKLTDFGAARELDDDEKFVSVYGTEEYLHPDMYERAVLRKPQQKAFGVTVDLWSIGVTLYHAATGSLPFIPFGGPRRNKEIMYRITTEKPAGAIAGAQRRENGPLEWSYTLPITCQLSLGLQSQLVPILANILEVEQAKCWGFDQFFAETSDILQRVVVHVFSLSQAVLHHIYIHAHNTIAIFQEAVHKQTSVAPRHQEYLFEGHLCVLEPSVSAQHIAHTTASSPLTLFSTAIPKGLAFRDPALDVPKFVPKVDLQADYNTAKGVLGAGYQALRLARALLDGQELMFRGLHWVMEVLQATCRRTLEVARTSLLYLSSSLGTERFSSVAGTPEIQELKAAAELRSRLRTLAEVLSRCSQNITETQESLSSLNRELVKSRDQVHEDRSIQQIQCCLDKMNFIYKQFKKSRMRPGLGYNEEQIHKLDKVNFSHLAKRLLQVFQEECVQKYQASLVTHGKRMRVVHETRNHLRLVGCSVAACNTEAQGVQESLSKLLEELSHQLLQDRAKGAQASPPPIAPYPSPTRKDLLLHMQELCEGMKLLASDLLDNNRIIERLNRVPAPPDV

Measured: residual activity

Chain of Mu-type opioid receptor (Homo sapiens) (P35372 whole entry): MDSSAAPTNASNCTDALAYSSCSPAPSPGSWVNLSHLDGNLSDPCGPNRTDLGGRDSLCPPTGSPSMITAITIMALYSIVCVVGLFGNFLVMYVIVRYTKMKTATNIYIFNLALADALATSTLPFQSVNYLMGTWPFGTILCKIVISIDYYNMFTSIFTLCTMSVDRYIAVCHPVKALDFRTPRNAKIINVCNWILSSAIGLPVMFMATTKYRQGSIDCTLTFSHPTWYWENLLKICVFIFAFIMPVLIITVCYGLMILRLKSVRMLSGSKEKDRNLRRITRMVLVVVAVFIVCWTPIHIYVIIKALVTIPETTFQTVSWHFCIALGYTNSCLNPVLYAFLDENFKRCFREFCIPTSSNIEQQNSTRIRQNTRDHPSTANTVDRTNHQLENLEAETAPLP
Chain of Epidermal growth factor receptor (Homo sapiens) (P00533 whole entry): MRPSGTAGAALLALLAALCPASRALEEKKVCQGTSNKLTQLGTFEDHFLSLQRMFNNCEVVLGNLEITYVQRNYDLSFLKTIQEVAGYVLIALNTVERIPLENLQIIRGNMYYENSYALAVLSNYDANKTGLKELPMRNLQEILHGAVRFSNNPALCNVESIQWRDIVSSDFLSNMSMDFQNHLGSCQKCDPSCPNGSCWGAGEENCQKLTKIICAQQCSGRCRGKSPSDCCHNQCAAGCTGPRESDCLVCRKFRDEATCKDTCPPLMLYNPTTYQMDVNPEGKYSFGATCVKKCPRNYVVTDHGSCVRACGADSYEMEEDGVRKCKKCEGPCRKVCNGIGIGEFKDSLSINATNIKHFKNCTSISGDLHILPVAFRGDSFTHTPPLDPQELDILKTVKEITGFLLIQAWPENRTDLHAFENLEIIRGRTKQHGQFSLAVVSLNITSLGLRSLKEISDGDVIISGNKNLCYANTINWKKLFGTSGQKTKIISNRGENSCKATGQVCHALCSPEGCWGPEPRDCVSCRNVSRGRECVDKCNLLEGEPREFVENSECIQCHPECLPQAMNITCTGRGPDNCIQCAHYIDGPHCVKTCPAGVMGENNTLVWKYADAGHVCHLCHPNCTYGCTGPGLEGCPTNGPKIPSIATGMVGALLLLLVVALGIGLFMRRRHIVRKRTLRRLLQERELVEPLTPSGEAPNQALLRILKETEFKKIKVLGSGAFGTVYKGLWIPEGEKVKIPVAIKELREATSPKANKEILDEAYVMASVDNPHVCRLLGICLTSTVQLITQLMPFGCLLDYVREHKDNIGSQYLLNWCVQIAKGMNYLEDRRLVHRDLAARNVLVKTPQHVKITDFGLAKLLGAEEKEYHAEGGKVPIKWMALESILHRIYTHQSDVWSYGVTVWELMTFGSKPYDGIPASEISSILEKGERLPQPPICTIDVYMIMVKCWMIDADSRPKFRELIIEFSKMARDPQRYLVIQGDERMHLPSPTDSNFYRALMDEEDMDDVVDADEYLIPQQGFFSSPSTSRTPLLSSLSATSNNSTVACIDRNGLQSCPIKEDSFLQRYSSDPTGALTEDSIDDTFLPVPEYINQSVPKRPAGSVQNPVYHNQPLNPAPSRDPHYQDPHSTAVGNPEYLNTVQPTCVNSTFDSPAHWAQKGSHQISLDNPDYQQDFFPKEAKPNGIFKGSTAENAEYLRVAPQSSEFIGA
Chain of Dual specificity protein kinase CLK1 (Homo sapiens) (P49759 whole entry, looked up): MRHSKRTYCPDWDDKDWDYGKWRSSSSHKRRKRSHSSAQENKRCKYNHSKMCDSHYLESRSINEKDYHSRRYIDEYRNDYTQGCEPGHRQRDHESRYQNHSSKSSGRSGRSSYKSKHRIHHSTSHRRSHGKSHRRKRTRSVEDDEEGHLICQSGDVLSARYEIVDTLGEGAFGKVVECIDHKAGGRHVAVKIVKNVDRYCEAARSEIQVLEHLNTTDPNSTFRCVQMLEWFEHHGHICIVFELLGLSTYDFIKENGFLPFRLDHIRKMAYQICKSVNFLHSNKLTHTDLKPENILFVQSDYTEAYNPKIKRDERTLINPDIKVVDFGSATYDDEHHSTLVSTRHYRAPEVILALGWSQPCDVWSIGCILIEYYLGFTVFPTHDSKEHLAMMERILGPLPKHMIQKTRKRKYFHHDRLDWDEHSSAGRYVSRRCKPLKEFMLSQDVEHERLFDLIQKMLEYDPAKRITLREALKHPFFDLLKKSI
Chain of Ribosomal protein S6 kinase alpha-6 (Homo sapiens) (Q9UK32 whole entry): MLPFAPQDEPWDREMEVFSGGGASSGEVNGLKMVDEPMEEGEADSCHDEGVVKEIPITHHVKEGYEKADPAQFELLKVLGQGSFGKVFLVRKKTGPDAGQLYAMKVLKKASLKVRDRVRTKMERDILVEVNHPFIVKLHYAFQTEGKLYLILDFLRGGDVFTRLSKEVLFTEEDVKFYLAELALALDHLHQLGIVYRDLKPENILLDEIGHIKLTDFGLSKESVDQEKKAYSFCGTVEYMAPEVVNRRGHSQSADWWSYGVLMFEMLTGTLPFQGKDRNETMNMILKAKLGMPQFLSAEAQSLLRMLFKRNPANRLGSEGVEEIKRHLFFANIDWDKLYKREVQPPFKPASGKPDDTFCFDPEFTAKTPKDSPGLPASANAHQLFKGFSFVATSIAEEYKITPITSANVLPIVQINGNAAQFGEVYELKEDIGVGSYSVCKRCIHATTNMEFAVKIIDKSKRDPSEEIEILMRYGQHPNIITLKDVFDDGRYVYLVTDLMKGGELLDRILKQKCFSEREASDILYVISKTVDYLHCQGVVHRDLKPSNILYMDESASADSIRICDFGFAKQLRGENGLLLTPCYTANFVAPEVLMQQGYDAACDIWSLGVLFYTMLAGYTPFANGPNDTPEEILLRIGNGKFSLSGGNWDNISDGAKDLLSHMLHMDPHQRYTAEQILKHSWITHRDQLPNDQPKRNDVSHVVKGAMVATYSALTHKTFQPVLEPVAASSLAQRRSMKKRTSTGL
Chain of Phosphatidylinositol 4-phosphate 3-kinase C2 domain-containing subunit alpha (Homo sapiens) (O00443 whole entry, the tested form may be a part): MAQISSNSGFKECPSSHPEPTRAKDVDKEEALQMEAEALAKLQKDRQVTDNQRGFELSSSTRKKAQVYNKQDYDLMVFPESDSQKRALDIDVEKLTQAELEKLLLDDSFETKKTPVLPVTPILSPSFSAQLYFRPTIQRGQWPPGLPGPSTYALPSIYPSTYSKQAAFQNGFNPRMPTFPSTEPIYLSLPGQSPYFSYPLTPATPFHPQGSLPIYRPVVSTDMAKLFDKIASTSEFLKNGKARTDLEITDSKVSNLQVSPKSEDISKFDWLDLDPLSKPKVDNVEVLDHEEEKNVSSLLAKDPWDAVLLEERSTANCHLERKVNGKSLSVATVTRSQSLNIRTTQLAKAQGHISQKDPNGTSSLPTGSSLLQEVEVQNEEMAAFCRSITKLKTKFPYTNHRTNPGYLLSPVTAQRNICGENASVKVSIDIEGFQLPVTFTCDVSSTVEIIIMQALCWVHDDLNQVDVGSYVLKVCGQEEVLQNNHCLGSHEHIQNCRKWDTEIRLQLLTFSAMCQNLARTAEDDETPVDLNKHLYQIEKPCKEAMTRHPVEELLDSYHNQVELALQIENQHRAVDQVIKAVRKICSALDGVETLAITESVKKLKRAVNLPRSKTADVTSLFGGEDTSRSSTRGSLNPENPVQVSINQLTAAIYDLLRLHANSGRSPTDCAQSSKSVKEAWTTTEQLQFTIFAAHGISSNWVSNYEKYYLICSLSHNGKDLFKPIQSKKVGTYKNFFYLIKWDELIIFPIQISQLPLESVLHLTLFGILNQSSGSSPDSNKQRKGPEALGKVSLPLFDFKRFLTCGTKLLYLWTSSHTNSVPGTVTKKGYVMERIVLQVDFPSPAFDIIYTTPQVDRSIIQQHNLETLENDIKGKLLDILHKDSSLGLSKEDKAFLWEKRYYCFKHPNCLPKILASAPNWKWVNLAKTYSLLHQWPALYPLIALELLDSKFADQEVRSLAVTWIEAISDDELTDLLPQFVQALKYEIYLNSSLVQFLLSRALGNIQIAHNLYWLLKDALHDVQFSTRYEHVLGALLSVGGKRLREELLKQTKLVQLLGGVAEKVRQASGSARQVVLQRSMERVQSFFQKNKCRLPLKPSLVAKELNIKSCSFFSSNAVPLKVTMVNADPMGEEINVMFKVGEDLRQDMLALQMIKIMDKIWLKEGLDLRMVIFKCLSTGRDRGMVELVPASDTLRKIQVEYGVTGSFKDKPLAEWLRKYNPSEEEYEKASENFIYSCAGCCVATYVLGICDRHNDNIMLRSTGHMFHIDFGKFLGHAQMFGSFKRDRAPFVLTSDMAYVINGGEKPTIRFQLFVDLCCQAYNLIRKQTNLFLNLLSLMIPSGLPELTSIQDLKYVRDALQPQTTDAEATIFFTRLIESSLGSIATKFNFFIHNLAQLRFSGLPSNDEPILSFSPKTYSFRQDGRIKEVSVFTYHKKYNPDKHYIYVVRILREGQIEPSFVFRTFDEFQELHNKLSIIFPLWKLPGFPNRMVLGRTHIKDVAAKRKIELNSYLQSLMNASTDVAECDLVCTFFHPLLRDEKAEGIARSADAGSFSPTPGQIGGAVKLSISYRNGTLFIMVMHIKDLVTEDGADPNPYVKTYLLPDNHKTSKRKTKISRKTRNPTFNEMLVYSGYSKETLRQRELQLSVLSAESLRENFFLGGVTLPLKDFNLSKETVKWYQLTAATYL
Chain of Cyclin-dependent kinase 5/CDK5 activator 1 (Homo sapiens) (Q00535 whole entry): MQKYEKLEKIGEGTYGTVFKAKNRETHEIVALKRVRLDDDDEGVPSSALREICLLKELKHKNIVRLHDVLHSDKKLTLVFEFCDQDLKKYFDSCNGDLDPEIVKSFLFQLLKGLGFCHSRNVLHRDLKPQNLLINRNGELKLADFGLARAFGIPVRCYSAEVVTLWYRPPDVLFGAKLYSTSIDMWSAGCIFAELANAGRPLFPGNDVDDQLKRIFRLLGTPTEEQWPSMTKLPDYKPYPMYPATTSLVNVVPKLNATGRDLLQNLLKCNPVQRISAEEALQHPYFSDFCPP
Chain of Cyclin-dependent kinase 5/CDK5 activator 1 (Homo sapiens) (Q15078 99-307 partner limits assumed): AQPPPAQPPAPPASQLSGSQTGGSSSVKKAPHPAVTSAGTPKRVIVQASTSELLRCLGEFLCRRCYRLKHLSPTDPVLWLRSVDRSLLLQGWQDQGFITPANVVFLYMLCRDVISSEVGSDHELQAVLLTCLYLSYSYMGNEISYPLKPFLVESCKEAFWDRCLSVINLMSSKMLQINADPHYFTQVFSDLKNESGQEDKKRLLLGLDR

CN(C)C(=O)Cn1cc(-c2nc([C@@](C)(c3ccc(-c4cnc(N)nc4)cc3)C3CC3)no2)cn1 [BI 665915]
inactive: [1] 99% | [2] 97% | [3] 104% | [4] 94.5% | [5] 99% | [6] 105% | [7] 96.5% | [8] 112% | [9] 97.5% | [10] 94% | [11] 104% | [12] 101% | [13] 100% | [14] 103% | [15] 95% | [16] 99.5%
